In assay [1] the target is Bromodomain-containing protein 4 (Homo sapiens, UniProt O60885). Description: Displacement of Bio-JQ1 from recombinant human His6 tagged BRD4 bromodomain 1 by alphascreen assay. (In general: Alpha assays give light when donor and acceptor beads are brought close together.)
Assay [2] concerns the target Transcription initiation factor TFIID subunit 1 (Homo sapiens, UniProt P21675). Description: Displacement of biotinylated probe from human TAF1 bromodomain 2 (1522 to 1656 residues) expressed in Escherichia coli BL21 (DE3) by alphascreen assay.

Transcription initiation factor TFIID subunit 1, sequence (P21675 whole entry, the tested form may be a part): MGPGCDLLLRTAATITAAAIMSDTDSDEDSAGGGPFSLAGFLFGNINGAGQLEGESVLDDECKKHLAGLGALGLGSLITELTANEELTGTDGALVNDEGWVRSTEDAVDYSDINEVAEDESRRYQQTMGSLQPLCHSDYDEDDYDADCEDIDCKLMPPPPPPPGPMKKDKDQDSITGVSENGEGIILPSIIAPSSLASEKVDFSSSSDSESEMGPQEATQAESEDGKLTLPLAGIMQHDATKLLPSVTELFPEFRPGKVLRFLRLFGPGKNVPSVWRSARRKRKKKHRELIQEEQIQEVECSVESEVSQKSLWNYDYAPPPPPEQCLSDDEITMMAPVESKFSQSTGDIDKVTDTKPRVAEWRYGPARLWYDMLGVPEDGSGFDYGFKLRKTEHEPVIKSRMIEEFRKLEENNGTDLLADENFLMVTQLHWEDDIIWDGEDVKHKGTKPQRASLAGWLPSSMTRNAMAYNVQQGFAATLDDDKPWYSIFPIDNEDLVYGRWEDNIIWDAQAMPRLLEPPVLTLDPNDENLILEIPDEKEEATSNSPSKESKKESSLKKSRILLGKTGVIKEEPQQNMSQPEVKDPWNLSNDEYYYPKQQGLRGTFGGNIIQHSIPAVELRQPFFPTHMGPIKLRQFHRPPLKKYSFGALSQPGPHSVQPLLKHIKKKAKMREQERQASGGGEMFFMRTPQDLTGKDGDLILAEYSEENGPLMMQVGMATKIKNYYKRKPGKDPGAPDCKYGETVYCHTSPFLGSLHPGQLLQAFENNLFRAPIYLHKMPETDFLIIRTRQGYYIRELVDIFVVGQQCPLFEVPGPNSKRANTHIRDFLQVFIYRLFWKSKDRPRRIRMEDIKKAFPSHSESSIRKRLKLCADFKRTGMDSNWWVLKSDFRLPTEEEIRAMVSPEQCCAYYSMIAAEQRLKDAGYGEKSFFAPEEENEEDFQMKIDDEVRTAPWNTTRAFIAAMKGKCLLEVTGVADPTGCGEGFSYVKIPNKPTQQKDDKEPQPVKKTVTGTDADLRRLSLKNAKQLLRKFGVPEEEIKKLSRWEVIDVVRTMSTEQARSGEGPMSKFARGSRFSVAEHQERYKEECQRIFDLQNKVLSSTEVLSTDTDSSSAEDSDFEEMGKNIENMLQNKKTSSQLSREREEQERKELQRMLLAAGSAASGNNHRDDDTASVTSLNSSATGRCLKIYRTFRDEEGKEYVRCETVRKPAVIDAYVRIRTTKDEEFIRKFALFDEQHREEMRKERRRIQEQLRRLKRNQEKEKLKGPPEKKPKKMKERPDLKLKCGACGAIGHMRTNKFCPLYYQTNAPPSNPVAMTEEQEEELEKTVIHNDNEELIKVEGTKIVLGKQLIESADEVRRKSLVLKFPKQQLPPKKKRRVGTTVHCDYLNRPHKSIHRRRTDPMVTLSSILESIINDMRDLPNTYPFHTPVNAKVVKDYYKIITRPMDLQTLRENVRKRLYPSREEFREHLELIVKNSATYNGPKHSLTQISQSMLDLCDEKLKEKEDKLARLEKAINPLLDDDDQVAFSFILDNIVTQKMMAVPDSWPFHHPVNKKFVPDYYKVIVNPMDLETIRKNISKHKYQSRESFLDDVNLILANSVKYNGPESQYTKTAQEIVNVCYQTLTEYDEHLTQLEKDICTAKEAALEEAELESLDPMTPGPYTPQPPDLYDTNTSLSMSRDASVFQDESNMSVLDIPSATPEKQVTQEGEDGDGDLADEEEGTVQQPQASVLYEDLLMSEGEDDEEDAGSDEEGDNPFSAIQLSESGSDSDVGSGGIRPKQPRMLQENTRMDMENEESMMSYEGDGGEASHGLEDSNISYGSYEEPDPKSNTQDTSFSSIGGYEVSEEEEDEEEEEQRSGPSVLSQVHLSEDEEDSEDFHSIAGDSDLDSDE

For `CC[C@@H]1C(=O)Nc2cnc(Nc3ccc(C(=O)NC4CCN(C)CC4)cc3OC)nc2N1C1CCCC1`, the IC50 in assay [1] and in assay [2] was > 10000 nM throughout.

Turning to `CC[C@@H]1C(=O)N(CC)c2cnc(Nc3ccc(C(=O)NC4CCN(C)CC4)cc3OC)nc2N1C1CCCC1`, the IC50 in assay [1] came out at 690 nM; in assay [2], 410 nM.

Take `CC[C@@H]1C(=O)N(C)c2cnc(Nc3ccc(C(=O)NC4CCN(C)CC4)cc3)nc2N1C1CCCC1`: the figures for the half-inhibitory concentration (IC50) in assay [1] and in assay [2] were 280 nM and 150 nM, respectively.

In the case of `CC[C@@H]1C(=O)N(C)c2cnc(Nc3ccc(C(=O)NC4CCN(C)CC4)cc3OC3CCCC3)nc2N1C1CCCC1`, the half-maximal inhibitory concentration (IC50) came out at 33 nM in assay [1] and 100 nM in assay [2].

As to `CC[C@@H]1C(=O)N(C)c2cnc(Oc3ccc(C(=O)NC4CCN(C)CC4)cc3OC)nc2N1C1CCCC1`, the IC50 was 620 nM in assay [1] and > 10000 nM in assay [2].

As to `CC[C@@H]1C(=O)N(C)c2cnc(Nc3ccc(C(=O)NC4CCN(C)CC4)cc3OC3CCC3)nc2N1C1CCCC1`, the IC50 in assay [1] was found to be 62 nM; in assay [2], 110 nM.

With `C[C@@H]1C(=O)N(C)c2cnc(Nc3ccc(C(=O)NC4CCN(C)CC4)cc3)nc2N1C1CCCC1`, the IC50 in assay [1] turned out to be 68 nM; in assay [2] it was 87 nM.

Turning to `COc1cc(C(=O)N2CCC(O)CC2)ccc1Nc1cc2c(cc1C)N(C)C(=O)[C@@H](C)N2C1CCCC1`, the IC50 in assay [1] is 2100 nM; in assay [2] it was > 10000 nM.

In the case of `COc1cc(C(=O)N2CCC(O)CC2)ccc1Nc1ccc2c(n1)N(C1CCCC1)[C@H](C)C(=O)N2C`, the half-inhibitory concentration (IC50) in assay [1] was determined as 47 nM; in assay [2], 93 nM.

Consider `CC[C@@H]1C(=O)N(C)c2cnc(Nc3ccc(C(=O)NC4CCN(C)CC4)cc3OC(C)C)nc2N1C1CCCC1`, for which the IC50 amounted to 63 nM in assay [1] and 210 nM in assay [2].

With `COc1cc(C(=O)N2CCC(O)CC2)ccc1Nc1ccc2c(n1)N(Cc1ccccc1)[C@H](C)C(=O)N2C`, the 50% inhibitory concentration (IC50) in assay [1] came out at 240 nM; in assay [2] it was 720 nM.

`C=CCCN1C(=O)[C@@H](C)N(C2CCOCC2)c2nc(Nc3ccc(C(=O)NC4CCN(C)CC4)cc3OC)ccc21`: the figures for the IC50 in assay [1] and in assay [2] were > 10000 nM and 82 nM, respectively.

For `COc1cc(C(=O)N2CCC(O)CC2)ccc1Nc1ccc2c(n1)N1CCCC[C@@H]1C(=O)N2C`, the IC50 in assay [1] turned out to be 7200 nM; in assay [2], 210 nM.

Take `COc1cc(C(=O)N2CCC(O)CC2)ccc1Nc1ccc2c(c1)N(C1CCCC1)[C@H](C)C(=O)N2C`: the IC50 was determined as 110 nM in assay [1] and 580 nM in assay [2].

`COc1cc(C(=O)NC2CCN(C)CC2)ccc1Nc1ccc2c(n1)N(C1CCOCC1)[C@H](C)C(=O)N2C`: the figures for the half-inhibitory concentration (IC50) in assay [1] and in assay [2] were 49 nM and < 10 nM, respectively.

`C=CCCN1C(=O)[C@@H](C)N(C2CCCC2)c2nc(Nc3ccc(C(=O)N4CCC(O)CC4)cc3OC)ccc21`: the IC50 worked out at 4400 nM in assay [1] and 570 nM in assay [2].

In the case of `COc1cc(C(=O)N2CCC(O)CC2)ccc1Nc1cc2c(cc1OC)N(C)C(=O)[C@@H](C)N2C1CCCC1`, the IC50 worked out at 7300 nM in assay [1] and 750 nM in assay [2].

In the case of `CC[C@@H]1C(=O)N(C)c2ccc(Nc3ccc(C(=O)NC4CCN(C)CC4)cc3OC)nc2N1C1CCCC1`, the IC50 in assay [1] was 150 nM; in assay [2], 450 nM.

`C[C@@H]1C(=O)N(C)c2ccc(Nc3ccc(C(=O)NC4CCN(C)CC4)cc3OC3CCCC3)nc2N1C1CCCC1`: the IC50 in assay [1] is 48 nM; in assay [2], 31 nM.

On to `CC(C)Oc1cc(C(=O)NC2CCN(C)CC2)ccc1Nc1ccc2c(n1)N(C1CCCC1)[C@H](C)C(=O)N2C`, for which the IC50 was found to be 130 nM in assay [1] and 89 nM in assay [2].

Consider `COc1cc(C(=O)N2CCC(O)CC2)ccc1Nc1ccc2c(n1)N(C1CCOCC1)[C@H](C)C(=O)N2C`, for which the values for the IC50 in assay [1] and in assay [2] were 140 nM and 38 nM, respectively.

Regarding `COc1cc(C(=O)N2CCC(O)CC2)ccc1Nc1ccc2c(c1C)N(C)[C@H](C)C(=O)N2C`, the IC50 was > 10000 nM in assay [1] and 980 nM in assay [2].

Regarding `CC(C)Oc1cc(C(=O)NC2CCN(C)CC2)ccc1Nc1ncc2c(n1)N(C1CCCC1)[C@H](C)C(=O)N2C`, the IC50 in assay [1] was determined as 220 nM; in assay [2] it was 320 nM.

As to `COc1cc(C(=O)N2CCC(O)CC2)ccc1Nc1ccc2c(n1)N(C1CCCCC1)[C@H](C)C(=O)N2C`, the IC50 in assay [1] is 150 nM; in assay [2] it was 72 nM.

With `C=CCN1C(=O)[C@@H](C)N(C2CCCC2)c2nc(Nc3ccc(C(=O)N4CCC(O)CC4)cc3OC)ccc21`, the 50% inhibitory concentration (IC50) in assay [1] stood at 4500 nM; in assay [2], 1700 nM.

For the compound `COc1cc(C(=O)N2CCC(O)CC2)ccc1Nc1ccc2c(n1)N(C1CCCCCC1)[C@H](C)C(=O)N2C`, the half-inhibitory concentration (IC50) in assay [1] amounted to 220 nM; in assay [2] it was 240 nM.

For `COc1cc(C(=O)NC2CCN(C)CC2)ccc1Nc1ccc2c(n1)N1CCCC[C@@H]1C(=O)N2C`, the IC50 in assay [1] was found to be 2700 nM; in assay [2], 63 nM.

For the compound `CC[C@@H]1C(=O)N(C)c2cnc(N(C)c3ccc(C(=O)NC4CCN(C)CC4)cc3OC)nc2N1C1CCCC1`, the IC50 in assay [1] was 100 nM; in assay [2], > 10000 nM.

Regarding `COc1cc(C(=O)N2CCC(O)CC2)ccc1Nc1cc2c(cc1F)N(C)C(=O)[C@@H](C)N2C1CCCC1`, the IC50 in assay [1] was found to be 680 nM; in assay [2], 4600 nM.

With `COc1cc(C(=O)NC2CCN(C)CC2)ccc1Nc1ccc2c(n1)N(C1CCCC1)[C@H](C)C(=O)N2C`, the results for the IC50 in assay [1] and in assay [2] were 37 nM and 16 nM, respectively.

As to `C[C@@H]1C(=O)N(C)c2ccc(Nc3ccc(C(=O)NC4CCN(C)CC4)cc3)nc2N1C1CCCC1`, the IC50 in assay [1] is 190 nM; in assay [2], 340 nM.

With `COc1cc(C(=O)N2CCC(O)CC2)ccc1Nc1ccc2c(n1)N(C1CCC(C)(C)C1)[C@H](C)C(=O)N2C` (mixture of isomers), the IC50 in assay [1] worked out at 140 nM; in assay [2], 300 nM.

Broadly, the IC50 is the point on the concentration scale where inhibition reaches its midpoint.

The record behind these values is ChEMBL document CHEMBL4304835 (ACS Med Chem Lett, 2019).
